Reference: US12568972B2, “Pyridazinol compounds and derivatives, preparation methods, herbicidal compositions and applications thereof” (Qingdao Kingagroot Chemical Compound Co., Ltd., priority 2018, dated 2026)

Key:
Assay in all cases: Post-emergence test, weed control effect
Type in all cases: in vivo
Conditions in all cases: after 3 weeks
[1] = system: Amaranthus retroflexus
Procedure, shortened: (§1)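 Seeds are sown in soil pots and raised in the greenhouse until the 2-3 leaf stage. Plants are then sprayed with compound dissolved in acetone with Tween-80, diluted in water and supplemented with 80% vegetable oil methyl ester synergist at 1500 g/ha, and fresh weight inhibition is rated 0-10 three weeks later.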

[2] = system: Chenopodiaceae
Procedure, shortened: as §1

[3] = system: Rorippa indica
Procedure, shortened: as §1

[4] = system: Veronica polita
Procedure, shortened: as §1

COP(=O)(OC)Oc1cc(C(F)(F)F)nnc1-c1ccc(F)c(Cl)c1 [Compound 1-167]
10: weed control effect, Amaranthus retroflexus (activity level) ([1]; Dose 3000 g/ha) | weed control effect, Chenopodiaceae (activity level) ([2]; Dose 3000 g/ha) | weed control effect, Rorippa indica (activity level) ([3]; Dose 3000 g/ha) | weed control effect, Veronica polita (activity level) ([4]; Dose 3000 g/ha)

CCOC(=S)Oc1cc(C(F)(F)F)nnc1-c1ccc(C)cc1 [Compound 1-155]
10: weed control effect, Amaranthus retroflexus (activity level) ([1]; Dose 3000 g/ha) | weed control effect, Chenopodiaceae (activity level) ([2]; Dose 3000 g/ha) | weed control effect, Rorippa indica (activity level) ([3]; Dose 3000 g/ha) | weed control effect, Veronica polita (activity level) ([4]; Dose 3000 g/ha)

CCCCCOC(=O)Oc1cc(C(F)(F)F)nnc1-c1ccc(F)c(F)c1 [Compound 1-31]
10: weed control effect, Amaranthus retroflexus (activity level) ([1]; Dose 3000 g/ha) | weed control effect, Chenopodiaceae (activity level) ([2]; Dose 3000 g/ha) | weed control effect, Rorippa indica (activity level) ([3]; Dose 3000 g/ha) | weed control effect, Veronica polita (activity level) ([4]; Dose 3000 g/ha)

CCOc1cc(-c2nnc(C(F)(F)F)cc2O)n(C)n1 [Compound 783]
10: weed control effect (activity level), Amaranthus retroflexus ([1]; Dose 3000 g/ha) | weed control effect (activity level), Chenopodiaceae ([2]; Dose 3000 g/ha) | weed control effect (activity level), Rorippa indica ([3]; Dose 3000 g/ha) | weed control effect (activity level), Veronica polita ([4]; Dose 3000 g/ha)

O=C(COc1cc(C(F)(F)F)nnc1-c1ccc(F)c(F)c1)c1ccccc1 [Compound 1-213]
10: weed control effect, Amaranthus retroflexus (activity level) ([1]; Dose 3000 g/ha) | weed control effect, Chenopodiaceae (activity level) ([2]; Dose 3000 g/ha) | weed control effect, Rorippa indica (activity level) ([3]; Dose 3000 g/ha) | weed control effect, Veronica polita (activity level) ([4]; Dose 3000 g/ha)

Oc1cc(C(F)(F)F)nnc1-c1ccc(Br)cc1 [Compound 28]
10: weed control effect (activity level), Amaranthus retroflexus ([1]; dose 1000 g/ha) | weed control effect (activity level), Chenopodiaceae ([2]; dose 1000 g/ha) | weed control effect (activity level), Rorippa indica ([3]; dose 1000 g/ha) | weed control effect (activity level), Veronica polita ([4]; dose 1000 g/ha)

Oc1cc(C(F)(F)F)nnc1-c1cncc(F)c1F [Compound 990]
10: weed control effect (activity level), Amaranthus retroflexus ([1]; Dose 3000 g/ha) | weed control effect (activity level), Chenopodiaceae ([2]; Dose 3000 g/ha) | weed control effect (activity level), Rorippa indica ([3]; Dose 3000 g/ha) | weed control effect (activity level), Veronica polita ([4]; Dose 3000 g/ha)

Cn1nc(I)cc1-c1nnc(C(F)(F)F)cc1O [Compound 778]
10: weed control effect (activity level), Amaranthus retroflexus ([1]; Dose 3000 g/ha) | weed control effect (activity level), Chenopodiaceae ([2]; Dose 3000 g/ha) | weed control effect (activity level), Rorippa indica ([3]; Dose 3000 g/ha) | weed control effect (activity level), Veronica polita ([4]; Dose 3000 g/ha)

CCOC(=O)Oc1cc(C(F)(F)F)nnc1-c1ccc(F)c(F)c1 [Compound 1-26]
10: weed control effect, Amaranthus retroflexus (activity level) ([1]; Dose 3000 g/ha) | weed control effect, Chenopodiaceae (activity level) ([2]; Dose 3000 g/ha) | weed control effect, Rorippa indica (activity level) ([3]; Dose 3000 g/ha) | weed control effect, Veronica polita (activity level) ([4]; Dose 3000 g/ha)

Cc1cc(-c2nnc(C(F)(F)F)cc2O)cnc1F [Compound 219]
10: weed control effect (activity level), Amaranthus retroflexus ([1]; dose 2000 g/ha) | weed control effect (activity level), Chenopodiaceae ([2]; dose 2000 g/ha) | weed control effect (activity level), Rorippa indica ([3]; dose 2000 g/ha) | weed control effect (activity level), Veronica polita ([4]; dose 2000 g/ha)

Oc1cc(C(F)(F)F)nnc1-c1ccnn1Cc1ccccc1 [Compound 833]
10: weed control effect (activity level), Amaranthus retroflexus ([1]; Dose 3000 g/ha) | weed control effect (activity level), Chenopodiaceae ([2]; Dose 3000 g/ha) | weed control effect (activity level), Rorippa indica ([3]; Dose 3000 g/ha) | weed control effect (activity level), Veronica polita ([4]; Dose 3000 g/ha)

CCC(=O)Oc1cc(C(F)(F)F)nnc1-c1ccc(F)cc1 [Compound 1-4]
10: weed control effect, Amaranthus retroflexus (activity level) ([1]; Dose 3000 g/ha) | weed control effect, Chenopodiaceae (activity level) ([2]; Dose 3000 g/ha) | weed control effect, Rorippa indica (activity level) ([3]; Dose 3000 g/ha) | weed control effect, Veronica polita (activity level) ([4]; Dose 3000 g/ha)

Cn1ncc(C(F)(F)F)c1-c1nnc(C(F)(F)F)cc1O [Compound 823]
10: weed control effect (activity level), Amaranthus retroflexus ([1]; Dose 3000 g/ha) | weed control effect (activity level), Chenopodiaceae ([2]; Dose 3000 g/ha) | weed control effect (activity level), Rorippa indica ([3]; Dose 3000 g/ha) | weed control effect (activity level), Veronica polita ([4]; Dose 3000 g/ha)

COc1ccc(-c2nnc(C(F)(F)F)cc2O)cc1 [Compound 93]
10: weed control effect (activity level), Amaranthus retroflexus ([1]; dose 1000 g/ha) | weed control effect (activity level), Chenopodiaceae ([2]; dose 1000 g/ha) | weed control effect (activity level), Rorippa indica ([3]; dose 1000 g/ha) | weed control effect (activity level), Veronica polita ([4]; dose 1000 g/ha)

N#Cc1cncc(-c2nnc(C(F)(F)F)cc2O)c1 [Compound 984]
10: weed control effect (activity level), Amaranthus retroflexus ([1]; Dose 3000 g/ha) | weed control effect (activity level), Chenopodiaceae ([2]; Dose 3000 g/ha) | weed control effect (activity level), Rorippa indica ([3]; Dose 3000 g/ha) | weed control effect (activity level), Veronica polita ([4]; Dose 3000 g/ha)

Cc1cc(C(=O)Oc2cc(C(F)(F)F)nnc2-c2ccc(F)c(F)c2)no1 [Compound 1-107]
10: weed control effect, Amaranthus retroflexus (activity level) ([1]; Dose 3000 g/ha) | weed control effect, Chenopodiaceae (activity level) ([2]; Dose 3000 g/ha) | weed control effect, Rorippa indica (activity level) ([3]; Dose 3000 g/ha) | weed control effect, Veronica polita (activity level) ([4]; Dose 3000 g/ha)

Oc1cc(C(F)(F)F)nnc1-c1cc(F)ccc1F [Compound 34]
10: weed control effect (activity level), Amaranthus retroflexus ([1]; dose 1000 g/ha) | weed control effect (activity level), Chenopodiaceae ([2]; dose 1000 g/ha) | weed control effect (activity level), Rorippa indica ([3]; dose 1000 g/ha) | weed control effect (activity level), Veronica polita ([4]; dose 1000 g/ha)

O=C(Oc1cc(C(F)(F)F)nnc1-c1ccc(F)cc1)c1cc(F)cc(F)c1F [Compound 1-93]
10: weed control effect, Amaranthus retroflexus (activity level) ([1]; Dose 3000 g/ha) | weed control effect, Chenopodiaceae (activity level) ([2]; Dose 3000 g/ha) | weed control effect, Rorippa indica (activity level) ([3]; Dose 3000 g/ha) | weed control effect, Veronica polita (activity level) ([4]; Dose 3000 g/ha)
